Measurements from patent publication US20240180868A1, “PHARMACEUTICAL COMPOSITION FOR PREVENTION OR TREATMENT OF VIRUS INFECTION, THE PHARMACEUTICAL COMPOSITION COMPRISING ROTTLERIN AS ACTIVE INGREDIENT” (QVET, priority 2021, published 2024).

How the values were obtained:
PRRSV = PRRSV protein expression, fluorescent immunostaining of nucleocapsids; format: cell-based; details: 10 μM; 48 hours after inoculation
Method: To evaluate the inhibitory effect of rottlerin or rottlerin liposomes against PRRSV protein expression, the cells were treated with 5 μM rottlerin liposomes and 10 μM rottlerin, and 48 hours after inoculation, fluorescent immunostaining was performed using primary antibody for PRRSV nucleocapsids and Alexa 488 secondary antibody.

PRRSV FL12 = test: PRRSV animal model, 4-week-old pigs, intranasal spray; format: in vivo; details: 1 mg intranasal
Method: Validity assessment for target animals were performed using 4-week-old pigs. A total of 15 pigs were used, and randomly distributed into a positive PRRSV FL12 administration group, a rottlerin liposome 100 μg administration group (R-L 100 μg), a rottlerin liposome 1 mg administration group (R-L 1 mg), and a rottlerin raw material 1 mg administration group (R 1 mg), wherein four animals were used for each group (three animals were used for the rottlerin liposome 100 μg administration group).
The pigs of each group were inoculated with 10^5 TCID50/ml FL12, and after the inoculation, 2 ml of each therapeutic agent was intranasally administered by spray.
Sera were separated from the pigs on days 1, 3, 7, 14, and 19, and the pigs were euthanized and necropsied on day 19 of inoculation. The lung tissue of each pig was collected and lesions were evaluated, thereby calculating lung lesion scores. […]
Microscopic lung lesions were measured from 0 to 4 according to the degree of interstitial pneumonia as follows: (0, no lesions; 1, mild lesions or less than half being lesions; 2, common lesions or half being lesions; 3, moderately spread lesions or more than half being lesions; 4, severe lesions or full lesions). […]

**Q.** `CC(=O)c1c(O)c(C)c(O)c(Cc2c(O)c3c(c(C(=O)/C=C/c4ccccc4)c2O)OC(C)(C)C=C3)c1O` [rottlerin] was tested. Which “PRRSV virus proteins detected by fluorescent immunostaining” value (PRRSV) did it give?
**A.** virus proteins were not detected

**Q.** What about the clinical symptom score (PRRSV FL12; scored daily 0 to 6) of the same compound?
**A.** significant decrease in clinical symptom score on days 8, 16, 17, and 18

**Q.** What about the “area under curve (AUC) of viremia, qRT-PCR” value (PRRSV FL12; vs FL12 group, p≤0.05) of the same compound?
**A.** significantly lower
